The results in this text go back to patent US7615639B2, “1-pyridyl-benzofuro[3,2-b]pyridin-2(1H)-ones” (Tibotec Pharmaceuticals, Ltd., priority 2004, dated 2009).

As a reminder, the EC50 is the concentration that produces a half-maximal response.

The structures appear in SMILES notation.

The assay concerns HIV. The experiment in a line: Cellular assay: anti-viral activity in HIV-infected MT4 cells (MTT read-out). The following applies: Human immunodeficiency virus 1, 120 h, five days incubation, MTT cell viability, negative logarithm of EC50 (protection of 50% of cells from cytopathogenic effect of the virus). The assay is classed as cell-based. Here is the method:
The compounds of the present invention were examined for anti-viral activity in a cellular assay, which was performed according to the following procedure.
HIV- or mock-infected MT4 cells were incubated for five days in the presence of various concentrations of the inhibitor. At the end of the incubation period, the replicating virus in the control cultures has killed all HIV-infected cells in the absence of any inhibitor. Cell viability was determined by measuring the concentration of MTT, a yellow, water soluble tetrazolium dye that is converted to a purple, water insoluble formazan in the mitochondria of living cells only. Upon solubilization of the resulting formazan crystals with isopropanol, the absorbance of the solution was monitored at 540 nm. The values correlate directly to the number of living cells remaining in the culture at the completion of the five day incubation. The inhibitory activity of the compound was monitored on the virus-infected cells and was expressed as EC50 and EC90. These values represent the amount of the compound required to protect 50% and 90%, respectively, of the cells from the cytopathogenic effect of the virus. The toxicity of the compound was measured on the mock-infected cells and was expressed as CC50, which represents the concentration of compound required to inhibit the growth of the cells by 50%. The selectivity index (SI) (ratio CC50/EC50) is an indication of the selectivity of the anti-HIV activity of the inhibitor. Wherever results are reported as e.g. pEC50 or pCC50 values, the result is expressed as the negative logarithm of the result expressed as EC50 or CC50 respectively.
(Cytopathic effects are the visible damage that an infection or toxin causes in cultured cells.)

With `Cn1c2ccccc2c2c1ccc(=O)n2-c1cc2ccccc2s1` [Compound 6], the EC50 was 12.6 µM.

`Cn1c2ccccc2c2c1cc(C#N)c(=O)n2-c1ccc(Cl)nc1` [Compound 7, 1-(6-Chloropyridin-3-yl)-5-methyl-2-oxo-2,5-dihydro-1H-pyrido[3,2-b]indole-3-carbonitrile]: the EC50 is 0.794 µM.

For the compound `Cn1c2ccccc2c2c1cc(C#N)c(=O)n2-c1cnc2ccccc2c1` [Compound 9], the EC50 is 2.51 µM.

As to `Cn1c2ccccc2c2c1cc(C#N)c(=O)n2-c1cncnc1` [Compound 11], the 50% effective concentration (EC50) is 20 µM.

In the case of `Cn1c2ccccc2c2c1cc(C#N)c(=O)n2-c1ccc(C#N)nc1` [Compound 14], the EC50 is 10 µM.

On to `Cn1ccc2cc(-n3c(=O)ccc4c3c3ccccc3n4C)ccc21` [Compound 17], for which the concentration giving a half-maximal response (EC50) is 6.31 µM.

In the case of `N#Cc1cc2[nH]c3ccccc3c2n(-c2ccnc(Cl)c2)c1=O` [Compound 19], the EC50 was 15.8 µM.

Turning to `Cn1c2ccccc2c2c1cc(C#N)c(=O)n2-c1ccnc(C(N)=O)c1` [Compound 20], the concentration giving a half-maximal response (EC50) is 5.01 µM.

With `Cn1c2ccccc2c2c1cc(C#N)c(=O)n2-c1ccc2nc(C(F)(F)F)cn2c1` [Compound 21], the EC50 was 12.6 µM.

As to `N#Cc1cc2[nH]c3ccccc3c2n(-c2ccc(Cl)nc2)c1=O` [Compound 26], the EC50 was 2.51 µM.

In the case of `Cn1c2ccccc2c2c1ccc(=O)n2-c1cnc2ccccc2c1` [Compound 27], the EC50 is 6.31 µM.

For `Cn1c2ccccc2c2c1cc(C#N)c(=O)n2-c1ccc(Br)nc1` [Compound 28], the EC50 is 3.16 µM.

Turning to `Cc1ccc(-n2c(=O)c(C#N)cc3c2c2ccccc2n3C)cn1` [Compound 32, 5-Methyl-1-(6-methyl-pyridin-3-yl)-2-oxo-2,5-dihydro-1H-pyrido[3,2-b]indole-3-carbonitrile], the EC50 was 1 µM.

For `Cc1cc(-n2c(=O)c(C#N)cc3c2c2ccccc2n3C)cnc1Cl` [Compound 34, 1-(6-Chloro-5-methyl-pyridin-3-yl)-5-methyl-2-oxo-2,5-dihydro-1H-pyrido[3,2-b]-indole-3-carbonitrile], the EC50 is 0.794 µM.

On to `COc1ccc(-n2c(=O)c(C#N)cc3c2c2ccccc2n3C)cn1` [Compound 35], for which the EC50 is 3.16 µM.

As to `Cn1c2ccccc2c2c1cc(C#N)c(=O)n2-c1ccc(F)nc1` [Compound 36], the EC50 is 7.94 µM.

In the case of `COc1ncc(-n2c(=O)c(C#N)cc3c2c2ccccc2n3C)cn1` [Compound 37], the EC50 is 2.51 µM.

For the compound `Cn1c2ccc(O)cc2c2c1cc(C#N)c(=O)n2-c1ccc(Cl)nc1` [Compound 43, 1-(6-Chloro-pyridin-3-yl)-8-hydroxy-5-methyl-2-oxo-2,5-dihydro-1H-pyrido[3,2-b]-indole-3-carbonitrile], the EC50 was 3.98 µM.
